According to article PMC9471048, “The signaling and selectivity of α‐adrenoceptor agonists for the human α2A, α2B and α2C‐adrenoceptors and comparison with human α1 and β‐adrenoceptors” (Pharmacology Research & Perspectives, 2022):
Read-outs that look alike come from different tables or passages of the source. One block for each compound: values may come before it.

Columns and labels:
[1] = system: parent CHO cells (no transfected receptor); set-up: method as in PMID 34355529; conditions: non‐α‐mediated mechanism; cited from earlier work
human α2C‐adrenoceptor [2] = target: T1, human α2C‐adrenoceptor (Homo sapiens, UniProt P18825)
T1 sequence (P18825 1-462): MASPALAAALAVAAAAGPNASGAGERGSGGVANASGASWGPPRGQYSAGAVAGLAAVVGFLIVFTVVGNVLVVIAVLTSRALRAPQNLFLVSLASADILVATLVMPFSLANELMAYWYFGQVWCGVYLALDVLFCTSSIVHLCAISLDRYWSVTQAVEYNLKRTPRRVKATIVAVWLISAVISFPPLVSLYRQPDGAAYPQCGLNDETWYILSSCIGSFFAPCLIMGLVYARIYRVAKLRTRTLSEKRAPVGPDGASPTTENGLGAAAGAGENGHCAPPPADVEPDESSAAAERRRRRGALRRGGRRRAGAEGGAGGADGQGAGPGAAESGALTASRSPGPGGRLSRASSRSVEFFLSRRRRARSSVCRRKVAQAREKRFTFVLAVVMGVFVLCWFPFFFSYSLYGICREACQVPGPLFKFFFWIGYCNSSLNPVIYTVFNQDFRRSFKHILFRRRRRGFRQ

human α2C‐adrenoceptor [3] = target: T1, human α2C‐adrenoceptor; experiment: ERK1/2‐phosphorylation in CHO‐α2C cells; type: cell-based; set-up: expressed in transfected cells; host or cells: CHO-K1 with CRE-SPAP reporter
human α2C‐adrenoceptor [4] = target: T1, human α2C‐adrenoceptor; experiment: 3H‐rauwolscine whole cell binding in CHO‐α2C cells; set-up: expressed in transfected cells; host or cells: CHO-K1 with CRE-SPAP reporter
human α2A‐adrenoceptor [5] = target: T2, human α2A‐adrenoceptor (Homo sapiens, UniProt P08913); experiment: 3H‐rauwolscine whole cell binding in CHO‐α2A cells; set-up: expressed in transfected cells; host or cells: CHO-K1 with CRE-SPAP reporter; conditions: for Kd: 3H‐rauwolscine whole cell binding
T2 sequence (P08913 1-465): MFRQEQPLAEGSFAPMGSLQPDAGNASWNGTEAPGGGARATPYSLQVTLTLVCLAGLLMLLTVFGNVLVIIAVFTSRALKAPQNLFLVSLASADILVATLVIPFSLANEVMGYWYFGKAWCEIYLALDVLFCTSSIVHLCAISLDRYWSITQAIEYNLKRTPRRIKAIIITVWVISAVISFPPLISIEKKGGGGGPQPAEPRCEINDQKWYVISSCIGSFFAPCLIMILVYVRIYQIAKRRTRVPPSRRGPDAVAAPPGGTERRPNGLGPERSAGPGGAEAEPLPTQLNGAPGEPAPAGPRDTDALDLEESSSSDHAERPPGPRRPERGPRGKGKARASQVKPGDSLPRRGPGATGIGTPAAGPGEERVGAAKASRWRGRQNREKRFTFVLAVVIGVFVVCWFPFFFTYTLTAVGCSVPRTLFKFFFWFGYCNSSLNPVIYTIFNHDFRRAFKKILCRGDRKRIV

human α2A‐adrenoceptor [6] = target: T2, human α2A‐adrenoceptor
human α2A‐adrenoceptor [7] = target: T2, human α2A‐adrenoceptor; experiment: ERK1/2‐phosphorylation in CHO‐α2A cells; type: cell-based; set-up: expressed in transfected cells; host or cells: CHO-K1 with CRE-SPAP reporter

Compound: CN1C[C@H](C(=O)N[C@]2(C)O[C@@]3(O)[C@@H]4CCCN4C(=O)[C@H](Cc4ccccc4)N3C2=O)C[C@@H]2c3cccc4[nH]cc(c34)C[C@H]21 [Dihydroergotamine]
ERK1/2‐phosphorylation agonist response in parent cells [1]: stimulate ERK1/2‐phosphorylation agonist responses

IC50 (human α2C‐adrenoceptor [2]): 52.5 µM
% inhibition, CRE‐SPAP (with forskolin) (human α2C‐adrenoceptor [2]; CHO‐α2C cells, % inhibition from the 3 μM forskolin control, mean ± SEM): 86.3 ± 5.2%
Log EC50 (Gs), CRE‐SPAP (without forskolin) (human α2C‐adrenoceptor [2]; CHO‐α2C cells, CRE‐SPAP production in the absence of forskolin): No response
% 10 μM PDBu, ERK1/2‐phosphorylation (human α2C‐adrenoceptor [3]; CHO‐α2C cells, maximum response compared to 10 μM PDBu, mean ± SEM): 153.8 ± 17.9%
EC50 (human α2C‐adrenoceptor [3]; CHO‐α2C cells, given as negative log EC50, mean ± SEM, read-out: Log EC50, ERK1/2‐phosphorylation (converted)): 7.76 µM
IC50 (human α2C‐adrenoceptor [4]; 3H‐rauwolscine whole cell binding, no KD obtained, read-out: IC50 in binding, CHO‐α2C): ~1000 µM
Kd (human α2A‐adrenoceptor [5]; ^app: apparent KD, IC50 from extrapolated curve as not all specific binding was inhibited, read-out: Log KD (apparent), CHO‐α2A (converted)): 417 µM
Kd (human α2A‐adrenoceptor [5]; CHO‐α2A, given as negative log KD, read-out: Log KD (binding) (converted)): 417 µM
IC50 (human α2A‐adrenoceptor [6]): 132 µM
% inhibition, CRE‐SPAP (with forskolin) (human α2A‐adrenoceptor [6]; CHO‐α2A (cell line 1), % inhibition from the 3 μM forskolin control, inhibition only): 98.1 ± 5.7%
Log EC50 (Gs), CRE‐SPAP (without forskolin) (human α2A‐adrenoceptor [6]; CHO‐α2A (cell line 1), absence of forskolin): No response
% 10 μM PDBu, ERK1/2‐phosphorylation (human α2A‐adrenoceptor [7]; CHO‐α2A, maximum response compared to 10 μM PDBu): 124.1 ± 11.7%
EC50 (human α2A‐adrenoceptor [7]; CHO‐α2A, read-out: Log EC50, ERK1/2‐phosphorylation (converted)): 4.79 µM
Compound: NCC(O)c1ccc(O)cc1 (stereo not drawn) [Octopamine]

Compound: Cc1cc(C(C)(C)C)c(O)c(C)c1CC1=NCCN1 [Oxymetazoline]
ERK1/2‐phosphorylation agonist response in parent cells [1]: stimulate ERK1/2‐phosphorylation agonist responses

Compound: Nc1cc(Cl)c(N=C2NCCN2)c(Cl)c1 [Para‐amino‐clonidine]
% inhibition, CRE‐SPAP (with forskolin) (human α2C‐adrenoceptor [2]): 82.3 ± 2.2%
Log EC50 (Gs), CRE‐SPAP (without forskolin) (human α2C‐adrenoceptor [2]): No response
Log IC50 (Gi), CRE‐SPAP (with forskolin) (human α2C‐adrenoceptor [2]): −8.09 ± 0.07
Log efficacy ratio (KD/IC50) (human α2C‐adrenoceptor [2]): 1.78
% 10 μM PDBu, ERK1/2‐phosphorylation (human α2C‐adrenoceptor [3]): 132.6 ± 16.1%
Log EC50, ERK1/2‐phosphorylation (human α2C‐adrenoceptor [3]): −8.68 ± 0.13
Log KD (human α2C‐adrenoceptor [4]): −6.31
Log KD (binding) (human α2A‐adrenoceptor [5]): −6.35
Log KD, CHO‐α2A (human α2A‐adrenoceptor [5]): −6.35 ± 0.03
% 3μM forskolin, CRE-SPAP (without forskolin) (human α2A‐adrenoceptor [6]): 12.9 ± 4.1%
% 3 μM forskolin, CRE‐SPAP (without forskolin) (human α2A‐adrenoceptor [6]): 37.6 ± 4.0%
% inhibition, CRE-SPAP (with forskolin) (human α2A‐adrenoceptor [6]): 67.5 ± 4.8%
Log EC50 (Gs), CRE-SPAP (with forskolin) (human α2A‐adrenoceptor [6]): -6.29 ± 0.32
Log EC50 (Gs), CRE‐SPAP (with forskolin) (human α2A‐adrenoceptor [6]): −6.81 ± 0.15
Log EC50 (Gs), CRE‐SPAP (without forskolin) (human α2A‐adrenoceptor [6]): −6.55 ± 0.10
Log IC50 (Gi), CRE‐SPAP (with forskolin) (human α2A‐adrenoceptor [6]): −8.74 ± 0.12
% 10 μM PDBu, ERK1/2‐phosphorylation (human α2A‐adrenoceptor [7]): 141.9 ± 10.6%
Log EC50, ERK1/2‐phosphorylation (human α2A‐adrenoceptor [7]): −9.58 ± 0.12
